No end group written: not given here. His‑tag = His-Tag conjugated at the N-terminus
Columns and labels:
[1] = Stability in serum containing medium; format: in vitro ADME; settings: for stability in serum containing medium: up to 48 hrs
Description: (§1) All peptides P4, P5 and P4-5 are stable in serum containing medium for up to 48 hrs and also in rat blood plasma (FIG. 7). P4 peptide was incubated in culture medium containing 10% fetal calf serum for various time periods at 37° C. and the stability of p4 was tested by Western blot analysis using p4-specific antibody. No loss of P4 was detected over a 24 hour period.

[2] = Stability in rat blood plasma; format: in vitro ADME
Description: as §1

neuroblastoma cells = test: Toxicity in vitro against cultured neuroblastoma cells; format: cell-based; settings: data not shown
Description: Human neuroblastoma cells, SH-SY5Y were treated with 15 μM Aβ in the presense or absence of Aβ binding peptide p4-5 in serum-free medium for 48 hrs and cell death was assessed by Hoechst stain.

primary cortical neurons = test: Toxicity in vitro against primary cortical neurons; format: cell-based; settings: data not shown
CD-1 mice = test: Toxicity in vivo; set-up: species or system mouse; settings: up to 20 mg/kg body weight
[3] = format: in vitro ADME
Description: (§2) These fusion proteins can be used not only to specifically deliver ABPs to the brain but also inside brain cells. This is particularly important since intracellular Aβ is believed to play a major role in synaptic dysfunction and neurodegeneration well before the accumulation of insoluble Aβ in senile plaques^6,7. Such pseudo vaccines would be administered, for example, subcutaneously, and further ingredients beyond a pharmacologically acceptable carrier would not be necessary. […] Recombinant Aβ binding peptide P4-5 (rABP, His-tag-[…]) was conjugated to BBB-permeable single-domain antibody FC5 (FIG. 8A). The FC5 conjugated peptide (FC5/ABP) bound AB1-42 equally well as the synthetic (sABP) or non-conjugated peptide (rABP) (FIG. 8B).

AB1-42 [4] = biological target: T1, AB1-42 (Homo sapiens, UniProt P05067); test: Aβ binding of FC5-conjugated peptide
T1 sequence (P05067 672-713 limits assumed): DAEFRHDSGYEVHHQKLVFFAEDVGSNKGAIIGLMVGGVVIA
Description: as §2

Aβ1-40 = Aβ1-40 (Homo sapiens, UniProt P05067); test: Aβ-binding of recombinant proteins by dot-blot assay; settings: PK-4-specific antibody (FIG. 1B)
Sequence of Aβ1-40 (P05067 672-711 limits assumed): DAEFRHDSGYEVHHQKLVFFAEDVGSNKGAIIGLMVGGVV
Description: (§3) Aβ-binding of recombinant proteins PK-4 and PK-3 with N-terminus His-tag was determined by dot-blot assay using His-Tag antibody (A) or PK-4-specific antibody (B), and by Biacore analysis (C). β-binding PK-4 is a […] amino acid-long polypeptide that corresponds to sequence 1171-1314, and 1369-1380, of the human pericentriolar material protein-1, PCM-1.

Aβ1-42 = Aβ1-42 (Homo sapiens, UniProt P05067); test: as above
Sequence of Aβ1-42 (P05067 672-713 limits assumed): as the sequence (P05067 672-713 limits assumed) above
Description: as §3

Aβ40-1 = test: Aβ-binding dot-blot assay, reverse peptide; settings: dot-blot (FIG. 1B)
Description: as §3

Aβ42-1 = test: Aβ-binding dot-blot assay, reverse peptide; settings: dot-blot (FIG. 1B)
Description: as §3

AB1-42 [5] = biological target: T1, AB1-42; test: Biacore analysis; format: binding; settings: Biacore (FIG. 1C)
Description: as §3

rat brain PKC = test: PKC inhibitory activity in vitro; format: biochemical; settings: rat brain PKC (FIG. 5)
Description: Various synthetic peptides derived from PK-4 (see FIG. 2) were tested for PKC inhibitory activity in vitro using rat brain PKC.

KTFKTRKASAQASLASKDKTPKSKSKKRNSTQLKSRVKNI [Peptide P4-5]
stability in serum containing medium [1]: stable
stability in rat blood plasma [2]: stable
toxicity in vitro against cultured neuroblastoma cells (neuroblastoma cells): no toxicity
toxicity in vitro against primary cortical neurons (primary cortical neurons): no toxicity
apparent toxicity in vivo (CD-1 mice): none of the peptides, p4, p5, or p4-5 showed any apparent toxicity

FSSMPDPVDPTTVTKTFKTRKASAQASLASKDKTPKSKSK [Peptide P4]
loss of peptide in culture medium containing 10% fetal calf serum ([1]; 37° C., over a 24 hour period, Western blot): No loss
stability in serum containing medium [1]: stable
stability in rat blood plasma [2]: stable
toxicity in vitro against cultured neuroblastoma cells (neuroblastoma cells): no toxicity
toxicity in vitro against primary cortical neurons (primary cortical neurons): no toxicity
apparent toxicity in vivo (CD-1 mice): none of the peptides, p4, p5, or p4-5 showed any apparent toxicity

KDKTPKSKSKKRNSTQLKSRVKNITHARRILQQSNRNACN [Peptide P5]
stability in serum containing medium [1]: stable
stability in rat blood plasma [2]: stable
apparent toxicity in vivo (CD-1 mice): none of the peptides, p4, p5, or p4-5 showed any apparent toxicity

His-tag-MPDPVDPTTVTKTFKTRKASAQASLASKDKTPKSKSKKRNSTQLKSRVKNI ({His‑tag}-MPDPVDPTTVTKTFKTRKASAQASLASKDKTPKSKSKKRNSTQLKSRVKNI) [rABP]
crossing of BBB in vitro [3]: did not cross the BBB

FC5/ABP: Recombinant Aβ binding peptide P4-5 conjugated to BBB-permeable single-domain antibody FC5 ({His‑tag}-MPDPVDPTTVTKTFKTRKASAQASLASKDKTPKSKSKKRNSTQLKSRVKNI; also: conjugated to single-domain antibody FC5)
binding of AB1-42 relative to synthetic or non-conjugated peptide (AB1-42 [4]): equally well
crossing of BBB in vitro [3]: crossed the barrier

B1: PK-4: Recombinant 170 amino acid polypeptide (21 kDa), sequence 1171-1314 and 1369-1380 of human pericentriolar material protein-1, PCM-1 (protein)
chain: SGKTEYMAFPKPFESSSSIGAEKPRNKKLPEEEVESSRTPWLYEQEGEVEKPFIKTGFSVSVEKSTSSNRKNQLDTNGRRRQFDEESLESFSSMPDPVDPTTVTKTFKTRKASAQASLASKDKTPKSKSKKRNSTQLKSRVKNITHARRILQQSNRNACNEAPETGSDFSMFEA
binding affinity for Aβ1-40 (Aβ1-40): high affinity (nM range)
selective binding of Aβ1-42 (Aβ1-42; His-Tag antibody (FIG. 1A)): selectively binds Aβ1-42
binding affinity for Aβ1-42 (Aβ1-42; PK-4-specific antibody (FIG. 1B)): high affinity (nM range)
binding of reverse peptide Aβ40-1 (Aβ40-1): does not bind
binding of reverse peptide Aβ42-1 (Aβ42-1): does not bind
binding of AB1-42 (AB1-42 [5]): High affinity-binding
PKC inhibitory activity (rat brain PKC): inhibits

From patent US8323925B2, “Aβ-binding protein and its peptide derivatives and uses thereof” (priority 2005, dated 2012)
